Consider three compounds from paper PMC7228129, “Evaluation of Developmental Toxicity, Developmental Neurotoxicity, and Tissue Dose in Zebrafish Exposed to GenX and Other PFAS” (Environmental Health Perspectives, 2020).

Structures are written as SMILES. Entries after “also recorded” stand apart in the source; their conditions may differ. Read-outs that look alike come from different tables or passages of the source.

In series [1] the test system is zebrafish. Particulars: Table 5 summary; zebrafish; ref Hagenaars et al. 2011; Ulhaq et al. 2013a; cited from earlier work.
The test system of series [2] is zebrafish. In words: Developmental toxicity (DevTox) assay. It counts as in vivo, Danio rerio. Particulars: for DevTox assay phenotype: Table 5 summary, this study (some rows also list literature); for EC50: Hill fit. How it is done:
(§1) At 0 dpf, zebrafish embryos were bleached as previously described ([Tal et al. 2017]). A single embryo at the dome-to-epiboly stages ([Kimmel et al. 1995]) was placed into each individual well of a 96-well plate containing a 40-μm nylon mesh filter (Millipore, Catalog No. MANMN4010) with 400μL of 10% Hanks’ balanced salt solution (HBSS) per well. Filter inserts containing zebrafish embryos were transferred to 96-well culture trays (Millipore, Catalog No. MAMCS9610) containing 250μL of 10% HBSS ([Westerfield 2007]) and 1μL of 250× working solutions per well. A final concentration of 0.4% DMSO was used for all exposure groups and as a vehicle control. In the case of GenX Free Acid in Study 2 (Figure 1), DI water was used as a vehicle control. Daily, from 1–5 dpf, plates underwent 100% media changes to refresh chemical dosing solutions by blotting (Brandel; Catalog No. FPXLR-196) and transferring mesh inserts containing zebrafish to new bottom plates (Millipore; Catalog No. MAMCS9610). To minimize evaporation, plates were sealed (Biorad; Catalog No. MSA5001) and wrapped with parafilm. Plates were maintained on a 14 h:10 h light cycle at 26.0°C and scored daily for death, malformations, hatching, and swim bladder inflation. At 6 dpf, plates were evaluated by two independent observers and DevTox or DNT assays were performed or media and tissue were collected for analytical chemistry analyses as described below.
In Study 1 (Figure 1), zebrafish were exposed, as described in the “Chemical Exposures” section, to 0.04, 0.1, 0.4, 1.1, 3.1, 9.3, 27.2, or 80.0μM PFOS, PFOA, PFHxS, PFHxA, or ADONA, or 0.4% DMSO. Six 96-well plates were tested with a single chemical concentration included on each microtiter plate. Subsequently, as part of Study 1, zebrafish were exposed to 0.04, 0.1, 0.4, 1.1, 3.1, 9.3, 27.2, or 80.0μM PFESA1, or 0.4% DMSO. In Study 2, GenX Free Acid diluted in DI water was tested by exposing zebrafish to 0.04, 0.1, 0.4, 1.1, 3.1, 9.3, 27.2, or 80.0μM of the compound or DI water. […] Zebrafish were exposed to 1.7, 3.1, 5.5, 9.8, 17.6, 31.4, 56.0, or 100.0μM of PFBS, PFHxS, PFHpS, or PFOS or 0.4% DMSO. Subsequently, zebrafish were exposed to 1.7, 3.1, 5.5, 9.8, 17.6, 31.4, 56.0, or 100.0μM PFPeS, or 0.4% DMSO. Chlorpyrifos was used as positive control for malformations ( 8.0μM ) and lethality ( 80.0μM ) ([Padilla et al. 2012]; [Tal et al. 2017]). To conduct DevTox assay assessments, at 6 dpf, two independent observers evaluated zebrafish larvae for survival, hatching, swim bladder inflation, and malformations, including curved body axis, shortened trunk, pericardial edema, yolk sac edema, necrotic yolk sac, pectoral fin abnormalities and head/jaw abnormalities. Directly after assessments, data were reviewed and, in the case of discrepancies, consensus calls were reached. Toxicity values were assigned to descriptive data (i.e., normal=0 , abnormal=20 , severely abnormal=50 , and dead=100 ), modified from a previously described approach ([Padilla et al. 2012]). Briefly, animals with a single malformation were scored as abnormal, whereas animals with ≥2 malformations were scored as severely abnormal.
For the DevTox assay, a Kruskal-Wallace nonparametric one-way analysis of variance (ANOVA) with a Dunn’s multiple comparison test was used to detect differences between exposure groups (* p<0.05 , ** p<0.0001 ) and LOEC values were determined. If a test for linear trend was significant ( p<0.05 ), with developmental toxicity observed at the highest concentration tested, nonlinear regression was performed with a Hill slope curve fitting for half maximal effective concentration ( EC50 ) value determinations.

For series [3], the system named is zebrafish. In words: Developmental neurotoxicity (DNT) assay, light/dark locomotor behavior test. It counts as in vivo, Danio rerio. Particulars: for DNT assay phenotype: Table 5 summary, this study (some rows also list literature); for Concentration causing hyperactivity in D1 period: dark 1; for Concentration causing hyperactivity in D1 period / Concentration causing hyperactivity in D2 period / Concentration causing hyperactivity in L1 period / Concentration causing hyperactivity in L2 period: vs 0.4% DMSO; for Concentration causing hyperactivity in D2 period: dark 2; for Concentration causing hyperactivity in L1 period: light 1; for Concentration causing hyperactivity in L2 period: light 2. How it is done: as §1
To increase the likelihood of observing behavioral effects in morphologically normal larvae, the highest concentration evaluated in the DNT assay was the lowest observed effect concentration (LOEC) determined in DevTox assay. Zebrafish were exposed in parallel to 4.4, 7.9, 14.0, 25.1, 44.8, or 80.0μM PFOA, PFHxS, PFHxA, or ADONA or 0.2, 0.3, 0.6, 1.0, 1.8, or 3.1μM PFOS or 0.4% DMSO. Subsequently, as part of Study 1, exposure to 4.4, 7.9, 14.0, 25.1, 44.8, or 80.0μM PFESA1, or 0.4% DMSO was evaluated. In Study 2, zebrafish were exposed to 4.4, 7.9, 14.0, 25.1, 44.8, or 80.0μM GenX Free Acid, or DI water. In Study 3, to increase the likelihood of observing malformations with shorter-chain compounds at multiple test concentrations, the highest concentration evaluated was 100.0μM . Zebrafish were exposed to 5.5, 9.8, 17.6, 31.4, 56.0, or 100.0μM PFBS; 3.1, 5.5, 9.8, 17.6, 31.4, or 56.0μM PFHxS; 1.7, 3.1, 5.5, 9.8, 17.6, or 31.4μM PFHpS; or 0.5, 1.0, 1.7, 3.1, 5.5, or 9.8μM PFOS, or 0.4% DMSO. Subsequently, as part of Study 3, zebrafish were exposed to 3.1, 5.5, 9.8, 17.6, 31.4, or 56.0μM PFPeS, or 0.4% DMSO. Chemical exposures and assessments were performed daily, as described above. To evaluate swimming behavior in a light/dark behavior test, microtiter plates were placed in a dark, temperature-controlled behavior testing room set to 26.0°C for at least 2 h prior to testing. At the time of testing, microtiter plates were placed on a Noldus tracking apparatus. Locomotor activity was recorded (30 frames/s) for a total of 60 min consisting of a 20-min dark acclimation period (0 lux) that was not analyzed followed by a 40-min testing period consisting of a 20-min light period (5.0 lux) and 20-min dark period (0 lux). Videos were analyzed using Ethovision software (version 3.1; Noldus Information Technology) as previously described ([Jarema et al. 2015]). Locomotor activity was collected for each individual fish for each 2-min period (minimum distance moved, set to 0.135cm ). Thus, for a 40-min test, 20 data points were collected per larvae. […] Four additional criteria for inclusion of individual larvae were applied. One, all larvae that were identified as abnormal, severely abnormal, or dead were excluded. Two, larvae with uninflated swim bladders were removed from analyses. Three, individual larvae that moved <2cm in either […] dark period were removed.

Series [4] concerns zebrafish. Conditions: Table 5 summary, ref Ulhaq et al. 2013b; cited from earlier work.
Setting [5] is: Study 3, 1.7–100.0 μM daily 0–5 dpf, scored 6 dpf, 0.4% DMSO.
[6] abbreviates: Danio rerio, Study 3, 1.7–100.0 μM daily 0–5 dpf, scored 6 dpf, 0.4% DMSO.
[7] abbreviates: Study 3, daily 0–5 dpf, tested 6 dpf.

For `O=S(=O)(O)C(F)(F)C(F)(F)C(F)(F)C(F)(F)F` [PFBS, Perfluorobutanesulfonic acid], the figures for the DevTox assay phenotype result with zebrafish [1] and with zebrafish [2] were “Positive” and “Negative”, respectively. The “Developmental toxicity outcome” value in the series with zebrafish [2] (setting [5]) was “negative”. In the series on zebrafish [3] (Study 3, daily 0–5 dpf, tested 6 dpf, 0.4% DMSO), the “Developmental neurotoxicity / locomotor activity outcome” value was “did not result in significant locomotor effects; also recorded: negative”. Further, the values for the DNT assay phenotype result in the series on zebrafish [3] and in the series with zebrafish [4] were “Negative^a” and “Hyperactivity”, respectively.

The EC50 is the concentration needed to bring the measured effect to its halfway point. A lower EC50 goes with a more potent agent. Turning to `O=S(=O)(O)C(F)(F)C(F)(F)C(F)(F)C(F)(F)C(F)(F)C(F)(F)C(F)(F)F` [PFHpS, Perfluoroheptanesulfonic acid], the EC50 in the series on zebrafish [2] (setting [6]) is 168 µM. Moreover, the DevTox assay phenotype entry in the series on zebrafish [2] was “Positive^a”. The “LOEC for developmental toxicity” value in the series with zebrafish [2] (sulfonic acid PFAS study, 1.7–100.0 μM daily 0–5 dpf, scored 6 dpf, 0.4% DMSO) was 31.4 µM. Besides, in the series on zebrafish [3] (setting [7]), the “Concentration causing hyperactivity in D1 period” value fell in the range of 3.1 to 5.5 µM, the “Concentration causing hyperactivity in D2 period” value is “no effect”, the “Concentration causing hyperactivity in L1 period” value was 5.5 µM and the “Concentration causing hyperactivity in L2 period” value is 3.1 to 5.5 µM. Further, the DNT assay phenotype entry with zebrafish [3] is given as “Hyperactivity^a”.

`O=S(=O)(O)C(F)(F)C(F)(F)C(F)(F)C(F)(F)C(F)(F)F` [PFPeS, Perfluoropentanesulfonic acid]: in the series with zebrafish [2] (setting [6]), the response was half-maximal at 48.8 µM (EC50). This compound registered a 50% effective concentration (EC50) in the series with zebrafish [2] (setting [5]) of 48.8 µM. In the series on zebrafish [2], the DevTox assay phenotype entry is “Positive^a”. In the series on zebrafish [3] (setting [7]), the “Concentration causing hyperactivity in D1 period” value is recorded as “no effect”, the “Concentration causing hyperactivity in D2 period” value is “no effect”, the “Concentration causing hyperactivity in L1 period” value is 5.5 µM and the “Concentration causing hyperactivity in L2 period” value lay in the range of 3.1 to 5.5 µM. Further, in the series on zebrafish [3], the DNT assay phenotype result is given as “Hyperactivity^a”.
